Columns and labels:
Assay in all cases: relative viability (nuclei count vs DMSO), 5 days (fraction); higher = more cells survive
SW 900 = tested on: SW 900
Method in brief: (§1)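 Dosing by pin tool came one day after lung cancer cell lines were seeded in 1536-well plates, using either one drug or a fixed anchor-drug dose plus five library-drug doses (not always all listed) in √10 steps. After 5 days, nuclei were counted on 4× images. Relative viability is treated-well nuclei count divided by vehicle-well nuclei count, and values are medians of duplicate plates.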

NCI-H441 = tested on: NCI-H441
Method in brief: as §1

HCC-44 = tested on: HCC-44
Method in brief: as §1

NCI-H1944 = tested on: NCI-H1944
Method in brief: as §1

NCI-H2126 = tested on: NCI-H2126
Method in brief: as §1

NCI-H322M = tested on: NCI-H322M
Method in brief: as §1

NCI-H1666 = tested on: NCI-H1666
Method in brief: as §1

NCI-H2228 = tested on: NCI-H2228
Method in brief: as §1

COR-L23 = tested on: COR-L23
Method in brief: as §1

EPLC-272H = tested on: EPLC-272H
Method in brief: as §1

NCI-H2087 = tested on: NCI-H2087
Method in brief: as §1

SW 1573 = tested on: SW 1573
Method in brief: as §1

NCI-H2023 = tested on: NCI-H2023
Method in brief: as §1

PC-14 = tested on: PC-14
Method in brief: as §1

ChaGo-K-1 = tested on: ChaGo-K-1
Method in brief: as §1

NCI-H460 = tested on: NCI-H460
Method in brief: as §1

HOP-62 = tested on: HOP-62
Method in brief: as §1

NCI-H1355 = tested on: NCI-H1355
Method in brief: as §1

EMC-BAC-2 = tested on: EMC-BAC-2
Method in brief: as §1

LCLC-103H = tested on: LCLC-103H
Method in brief: as §1

NCI-H3122 = tested on: NCI-H3122
Method in brief: as §1

NCI-H2405 = tested on: NCI-H2405
Method in brief: as §1

NCI-H1975 = tested on: NCI-H1975
Method in brief: as §1

LK-2 = tested on: LK-2
Method in brief: as §1

With Nc1cccc2c1CN(C1CCC(=O)NC1=O)C2=O (configuration not stated) [Lenalidomide] + CC(=O)c1c(C)c2cnc(Nc3ccc(N4CCNCC4)cn3)nc2n(C2CCCC2)c1=O [Palbociclib] (partner 0.5 µM) the relative viability (SW 900; first compound 2.53 µM) was 0.52, the relative viability (SW 900; first compound 8 µM) was 0.454 and the relative viability (NCI-H441; first compound 0.253 µM) was 0.239. It also gave a relative viability (NCI-H441; first compound 0.8 µM) of 0.205, a relative viability (NCI-H441; first compound 2.53 µM) of 0.264 and a relative viability (NCI-H441; first compound 8 µM) of 0.202. For the same compound, the relative viability (HCC-44; first compound 0.253 µM) was 0.965, the relative viability (HCC-44; first compound 0.8 µM) was 0.785 and the relative viability (HCC-44; first compound 2.53 µM) was 0.972. The relative viability (HCC-44; first compound 8 µM) was 0.907, the relative viability (NCI-H1944; first compound 0.253 µM) was 0.364 and the relative viability (NCI-H1944; first compound 2.53 µM) was 0.342. It also gave a relative viability (NCI-H1944; first compound 8 µM) of 0.27, a relative viability (NCI-H2126; first compound 0.253 µM) of 0.359 and a relative viability (NCI-H2126; first compound 0.8 µM) of 0.383. The relative viability (NCI-H2126; first compound 2.53 µM) was 0.328, the relative viability (NCI-H2126; first compound 8 µM) was 0.332 and the relative viability (NCI-H322M; first compound 0.253 µM) was 0.53. The relative viability (NCI-H322M; first compound 0.8 µM) was 0.521, the relative viability (NCI-H322M; first compound 2.53 µM) was 0.473 and the relative viability (NCI-H322M; first compound 8 µM) was 0.488. It also gave a relative viability (NCI-H1666; first compound 0.253 µM) of 0.647, a relative viability (NCI-H1666; first compound 0.8 µM) of 0.584 and a relative viability (NCI-H1666; first compound 2.53 µM) of 0.646. For the same compound, the relative viability (NCI-H1666; first compound 8 µM) was 0.642, the relative viability (NCI-H2228; first compound 0.253 µM) was 1.05 and the relative viability (NCI-H2228; first compound 0.8 µM) was 0.36. The relative viability (NCI-H2228; first compound 2.53 µM) was 1.04, the relative viability (NCI-H2228; first compound 8 µM) was 0.657 and the relative viability (COR-L23; first compound 0.253 µM) was 0.342. For the same compound, the relative viability (COR-L23; first compound 0.8 µM) was 0.34, the relative viability (COR-L23; first compound 2.53 µM) was 0.308 and the relative viability (COR-L23; first compound 8 µM) was 0.348. It also gave a relative viability (EPLC-272H; first compound 0.253 µM) of 0.34, a relative viability (EPLC-272H; first compound 0.8 µM) of 0.383 and a relative viability (EPLC-272H; first compound 2.53 µM) of 0.333. The relative viability (EPLC-272H; first compound 8 µM) was 0.322, the relative viability (NCI-H2087; first compound 0.253 µM) was 0.248 and the relative viability (NCI-H2087; first compound 2.53 µM) was 0.192. It also gave a relative viability (NCI-H2087; first compound 8 µM) of 0.196, a relative viability (SW 1573; first compound 0.253 µM) of 0.239 and a relative viability (SW 1573; first compound 0.8 µM) of 0.384. For the same compound, the relative viability (SW 1573; first compound 2.53 µM) was 0.399, the relative viability (SW 1573; first compound 8 µM) was 0.421 and the relative viability (NCI-H2023; first compound 0.253 µM) was 0.405. It also gave a relative viability (NCI-H2023; first compound 0.8 µM) of 0.419, a relative viability (NCI-H2023; first compound 2.53 µM) of 0.403 and a relative viability (NCI-H2023; first compound 8 µM) of 0.45. It also gave a relative viability (PC-14; first compound 0.253 µM) of 0.541, a relative viability (PC-14; first compound 0.8 µM) of 0.533 and a relative viability (PC-14; first compound 2.53 µM) of 0.6. The relative viability (PC-14; first compound 8 µM) was 0.685, the relative viability (ChaGo-K-1; first compound 0.253 µM) was 0.946 and the relative viability (ChaGo-K-1; first compound 0.8 µM) was 0.978. It also gave a relative viability (ChaGo-K-1; first compound 2.53 µM) of 1.01, a relative viability (ChaGo-K-1; first compound 8 µM) of 0.971 and a relative viability (NCI-H460; first compound 0.253 µM) of 0.179. For the same compound, the relative viability (NCI-H460; first compound 0.8 µM) was 0.0987, the relative viability (NCI-H460; first compound 2.53 µM) was 0.197 and the relative viability (NCI-H460; first compound 8 µM) was 0.142. For the same compound, the relative viability (HOP-62; first compound 0.253 µM) was 0.45, the relative viability (HOP-62; first compound 0.8 µM) was 0.41 and the relative viability (HOP-62; first compound 2.53 µM) was 0.455. The relative viability (HOP-62; first compound 8 µM) was 0.378, the relative viability (NCI-H1355; first compound 0.253 µM) was 0.397 and the relative viability (NCI-H1355; first compound 0.8 µM) was 0.372. For the same compound, the relative viability (NCI-H1355; first compound 2.53 µM) was 0.413, the relative viability (NCI-H1355; first compound 8 µM) was 0.286 and the relative viability (EMC-BAC-2; first compound 0.253 µM) was 0.503. It also gave a relative viability (EMC-BAC-2; first compound 0.8 µM) of 0.473, a relative viability (EMC-BAC-2; first compound 2.53 µM) of 0.52 and a relative viability (EMC-BAC-2; first compound 8 µM) of 0.448. For the same compound, the relative viability (LCLC-103H; first compound 0.253 µM) was 0.484, the relative viability (LCLC-103H; first compound 0.8 µM) was 0.459 and the relative viability (LCLC-103H; first compound 2.53 µM) was 0.464. It also gave a relative viability (LCLC-103H; first compound 8 µM) of 0.47, a relative viability (NCI-H3122; first compound 0.253 µM) of 0.178 and a relative viability (NCI-H3122; first compound 0.8 µM) of 0.213. For the same compound, the relative viability (NCI-H3122; first compound 2.53 µM) was 0.232, the relative viability (NCI-H3122; first compound 8 µM) was 0.195 and the relative viability (NCI-H2405; first compound 0.253 µM) was 0.513. The relative viability (NCI-H2405; first compound 0.8 µM) was 0.529, the relative viability (NCI-H2405; first compound 2.53 µM) was 0.524 and the relative viability (NCI-H2405; first compound 8 µM) was 0.45. The relative viability (NCI-H1975; first compound 0.253 µM) was 0.591, the relative viability (NCI-H1975; first compound 0.8 µM) was 0.312 and the relative viability (NCI-H1975; first compound 2.53 µM) was 0.711. For the same compound, the relative viability (NCI-H1975; first compound 8 µM) was 0.399, the relative viability (LK-2; first compound 0.253 µM) was 0.575 and the relative viability (LK-2; first compound 0.8 µM) was 0.734. For the same compound, the relative viability (LK-2; first compound 2.53 µM) was 0.845 and the relative viability (LK-2; first compound 8 µM) was 0.649.
